Results reported in US20250019386A1, “PYRROLO[1,2-b]-2-PYRIDAZINONE COMPOUNDS AS 5-HT4 RECEPTOR AGONISTS” (SUVEN LIFE SCIENCES LIMITED, priority 2022, published 2025).

Tests used:
[1] = target: T1, 5-HT4 receptors (Homo sapiens (Human), UniProt Q13639); settings: background statement; cited from earlier work
[2] = target: hERG potassium channels (Homo sapiens (Human), UniProt Q12809); settings: background statement; cited from earlier work
[3] = system: gastric emptying; test: Effect on gastric emptying in Beagle dogs (clonidine model of gastroparesis); format: in vivo; settings: 10 mg/kg oral, clonidine-treated beagle dogs
Experimental: Six beagle dogs were used for the study in a crossover manner such that all 6 dogs received all the treatments. Each dog was placed in an individual cage after overnight fasting and water removed. To provide a model of gastroparesis, clonidine (α2 adrenergic agonist) at a dose of 10 μg/kg was injected subcutaneously 30 min before test meal administration.
Dogs were orally administered test compound of example 2 at 1, 3 and 10 mg/kg or vehicle or cisapride at 10 mg/kg immediately before the administration of clonidine. The test meal (10 mL/kg), made up of commercially available semi-solid food with 10 mg/kg of acetaminophen (APAP), was provided 30 min after clonidine injection. Blood samples were collected from cephalic vein at 0, 0.25, 0.5, 0.75, 1.0, 1.25, 1.5 & 2.0 h after test meal administration and then plasma was separated by centrifugation. Plasma concentrations of APAP were determined by in-house methods using LC-MS/MS.

[4] = Rat brain penetration study; format: in vivo; settings: brain/plasma, oral (gavage) 3 mg/kg, male Wistar rats, brain concentrations below LLOQ taken as zero, read-out: Single dose Brain Penetration (Cb/Cp)
Experimental: Male Wistar rats (225±25 g) were used as experimental animals. Three animals were housed in each cage. Animals were given water and food ad libitum throughout the experiment and maintained on a 12 h light/dark cycle.
Brain penetration was determined in discrete manner in rats. One day prior to dosing day, male Wistar rats were acclimatized. After acclimatization, the rats were grouped according to their weight. In each group, 3 animals were kept in individual cages and allowed free access to food and water. At each time point (0.5, 1, and 2 h) n=3 animals were used.
The compounds of formula (I) were suitably preformulated and administered orally at (free base equivalent) 3 mg/kg. Blood samples were collected via, cardiac puncture by using isoflurane anesthesia. The animals were sacrificed to collect brain tissue. Plasma was separated and brain samples were homogenized and stored frozen at −20° C. until analysis.
The concentrations of the compounds of formula (I) were quantified in plasma and brain homogenate by qualified LC-MS/MS method using a suitable extraction technique. The compounds of formula (I) were quantified in the calibration range of 1-2000 ng/mL in plasma and brain homogenate. Study samples were analyzed using calibration samples in the batch and quality control samples spread across the batch. Extent of brain-plasma ratio was calculated (Cb/Cp). Brain concentrations were found below LLOQ and a value of zero was considered for calculation purposes.

[5] = Rat pharmacokinetic study; format: in vivo; settings: male Wistar rats, plasma; for bioavailability: oral 3 mg/kg vs intravenous 1 mg/kg
Experimental: Male Wistar rats (250±50 g) were used as experimental animals. Animals were housed individually in polypropylene cages. Two days prior to study, rats were anesthetized with isoflurane for surgical placement of jugular vein catheter. Rats were randomly divided for oral (3 mg/kg and 10 mL/kg as dose volume) and intravenous (1 mg/kg and 2 mL/kg as dose volume) dosing (n=3/group) and fasted overnight before oral dosing (p.o.). However, rats allocated to intravenous dosing food and water was provided ad libitum.
Intravenous formulation was prepared by using water for injection as vehicle. For Oral, formulation was prepared by using reagent grade water as vehicle. The dose formulations were prepared freshly on the day of dosing.
After dosing of animal, each time point a 200 μL of blood sample was collected through jugular vein and replenished with an equivalent volume of normal saline. The collected blood sample was transferred into a labeled eppendorf tube containing 10 μL of sodium heparin (1000 IU/mL) as an anticoagulant. Typically blood samples were collected at following time points: 0.08, 0.25, 0.5, 1, 2, 4, 6, 8, and 24 h post dose. Blood was centrifuged at 4000 rpm for 10 min. Plasma was separated and stored frozen at −80° C. until analysis. The concentrations of the test compounds were quantified in plasma by qualified LC-MS/MS method using a suitable extraction technique. The test compounds were quantified in the calibration range around 1-2000 ng/mL in plasma. Study samples were analyzed using calibration samples in the batch and quality control samples spread across the batch.
Pharmacokinetic parameters Cmax, AUCt, t1/2 and bioavailability were calculated by non-compartmental model using standard non-compartmental model by using Phoenix WinNonlin 6.4 version Software.

[6] = target: T1, 5-HT4 receptors; test: Determination of EC50 values for 5-HT4 receptor (pCRE-Luc reporter assay); format: cell-based; settings: CHO cells expressing recombinant human 5-HT4 receptor and pCRE-Luc reporter; 4 h incubation; luciferase activity
Experimental: A stable CHO cell line expressing recombinant human 5-HT4 receptor and pCRE-Luc reporter system was used for cell-based assay. The assay offers a non-radioactive based approach to determine binding of a compound to GPCRs. In this specific assay, the level of intracellular cyclic AMP, which is modulated by activation, or inhibition of the receptor is measured. The recombinant cells harbor luciferase reporter gene under the control of cAMP response element.
The above cells were grown in 96 well clear bottom white plates in Ham's F12 medium containing 10% fetal bovine serum. Prior to the addition of compounds or standard agonist, cells were serum starved overnight. Increasing concentrations of test compounds were added to the cells in OptiMEM medium. The incubation was continued in CO2 incubator at 37° C. with 5% CO2 conditions for 4 h. Medium was removed and cells were washed with phosphate buffered saline. The cells were lysed and luciferase activity was measured in a Luminometer. Concentration-response data was generated using the luciferase assay, following incubation of cells with receptor ligands, were analyzed by subtracting basal levels (i.e. with medium alone), then normalizing values as a percentage of controls (endogenous agonist serotonin (10 μM)). […] EC50 values of the compounds were defined as the concentration required in stimulating the luciferase activity by 50%.

T1 sequence (Q13639 whole entry): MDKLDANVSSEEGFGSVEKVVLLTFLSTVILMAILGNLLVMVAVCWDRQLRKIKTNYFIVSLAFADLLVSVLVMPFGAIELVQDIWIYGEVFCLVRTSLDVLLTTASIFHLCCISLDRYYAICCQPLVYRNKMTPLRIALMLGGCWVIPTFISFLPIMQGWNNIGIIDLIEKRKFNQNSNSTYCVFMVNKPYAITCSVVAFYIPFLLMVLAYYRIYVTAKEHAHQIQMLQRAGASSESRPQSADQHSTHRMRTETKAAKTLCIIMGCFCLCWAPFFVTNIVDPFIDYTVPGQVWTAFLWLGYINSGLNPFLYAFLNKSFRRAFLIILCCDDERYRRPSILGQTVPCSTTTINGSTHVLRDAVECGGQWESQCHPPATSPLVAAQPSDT
Chain of hERG potassium channels (Q12809 whole entry): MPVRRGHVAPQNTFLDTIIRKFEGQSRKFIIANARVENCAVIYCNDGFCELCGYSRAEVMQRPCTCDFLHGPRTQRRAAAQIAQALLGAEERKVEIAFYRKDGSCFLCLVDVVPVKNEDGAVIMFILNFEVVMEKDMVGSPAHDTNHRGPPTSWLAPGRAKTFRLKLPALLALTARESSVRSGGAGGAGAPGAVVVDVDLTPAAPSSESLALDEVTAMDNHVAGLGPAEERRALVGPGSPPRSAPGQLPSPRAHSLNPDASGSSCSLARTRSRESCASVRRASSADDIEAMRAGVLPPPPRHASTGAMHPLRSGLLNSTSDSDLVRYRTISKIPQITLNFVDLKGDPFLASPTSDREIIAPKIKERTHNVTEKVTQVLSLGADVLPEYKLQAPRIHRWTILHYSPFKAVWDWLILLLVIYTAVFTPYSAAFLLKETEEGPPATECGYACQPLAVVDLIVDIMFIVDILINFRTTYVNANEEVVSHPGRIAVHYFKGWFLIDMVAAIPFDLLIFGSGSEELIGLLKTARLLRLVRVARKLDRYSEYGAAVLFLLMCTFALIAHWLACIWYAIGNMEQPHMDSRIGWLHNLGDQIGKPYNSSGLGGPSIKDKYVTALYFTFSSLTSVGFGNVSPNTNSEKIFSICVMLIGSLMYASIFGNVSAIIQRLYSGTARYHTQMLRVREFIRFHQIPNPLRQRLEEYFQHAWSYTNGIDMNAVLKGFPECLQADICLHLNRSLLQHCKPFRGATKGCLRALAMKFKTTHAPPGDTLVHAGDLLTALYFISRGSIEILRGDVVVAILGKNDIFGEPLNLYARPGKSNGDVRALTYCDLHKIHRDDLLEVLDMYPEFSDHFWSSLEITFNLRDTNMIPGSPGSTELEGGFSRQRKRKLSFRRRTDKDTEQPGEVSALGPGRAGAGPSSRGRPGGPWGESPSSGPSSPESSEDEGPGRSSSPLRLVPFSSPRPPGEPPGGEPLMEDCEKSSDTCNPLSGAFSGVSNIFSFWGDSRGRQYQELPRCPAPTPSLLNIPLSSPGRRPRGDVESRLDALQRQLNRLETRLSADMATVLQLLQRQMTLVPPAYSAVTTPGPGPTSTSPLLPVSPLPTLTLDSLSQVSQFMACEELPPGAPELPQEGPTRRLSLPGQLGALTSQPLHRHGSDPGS

Structure (SMILES) | selectivity for 5-HT4 receptors [1] | interaction with hERG potassium channels [2] | speed of gastric emptying [3] | Kp [4] | AUC(0-t) ([5]; intravenous (bolus), 1 mg/kg) [ng·h/mL] | half-life ([5]; intravenous (bolus), 1 mg/kg) [h] | AUC(0-t) ([5]; oral (gavage), 3 mg/kg) [ng·h/mL] | Cmax ([5]; oral (gavage), 3 mg/kg) [ng/mL] | bioavailability [5] [%] | EC50 [6] [µM]
COc1cc(N)c(Cl)cc1C(=O)NC1CCN(CCCOc2ccc(F)cc2)CC1OC (stereo not shown) [cisapride] | poor selectivity | potent interaction | restored speed of gastric emptying |  |  |  |  |  |  | 
[H]/N=C(/NCCCCC)N/N=C/c1c[nH]c2ccc(OC)cc12 [tegaserod] | poor selectivity | potent interaction |  |  |  |  |  |  |  | 
CC(C)n1c(=O)c(C(=O)NC2CC3CCC(C2)N3CCNS(C)(=O)=O)cc2cccn21.O=C(O)C(O)C(O)C(=O)O [Example 28, N-{8-[2-Methanesulfonylaminoethyl]-8-azabicyclo[3.2.1]oct-3-yl} [1-isopropyl-2-oxo-1,2-dihydro pyrrolo[1,2-b]pyridazin]-3-carboxamide L-(+)-tartrate] |  |  |  | 0 | 146 ± 39 | 1.3 ± 0.2 | 189 ± 26 | 83 ± 51 | 43 ± 6 | 0.012
CC(C)n1c(=O)c(C(=O)NC2CC3CCC(C2)N3C[C@H](O)CN(C)S(C)(=O)=O)cc2cccn21.O=C(O)C(O)C(O)C(=O)O (single isomer, unassigned) [Example 4] |  |  |  | 0 | 124 ± 7.9 | 1.7 ± 0.3 | 44 ± 22 | 11 ± 6.6 | 12 ± 5.9 | 0.01
